A word on the tissue uptake: it is the percentage of the injected dose found per gram of tissue.

The nature of data set [1]: Stability in mouse serum monitored by RP-HPLC. The class given is in vitro ADME. Conditions: 37° C., 24 h incubation. The protocol:
Complexation of the Peptide with ^111In: ^111In-DOTA-CycMSH and ^111In-DOTA-GlyGlu-CycMSH were prepared using a 0.5 M NH4OAc-buffered solution at pH 5.4. Briefly, 50 μl of ^111InCl3 (18.5-37.0 MBq in 0.05 M HCl), 10 μl of 1 mg/ml DOTA-CycMSH or DOTA-GlyGlu-CycMSH aqueous solution and 400 μl of 0.5 M NH4OAc (pH 5.4) were added into a reaction vial and incubated at 75° C. for 45 min. After the incubation, 20 μl of 0.5% EDTA aqueous solution was added into the reaction vial to scavenge potential unbound ^111In. The radiolabeled complexes were purified to single species by Waters RP-HPLC (Milford, Mass.) on a Grace Vadyc C-18 reverse phase analytical column (Deerfield, Ill.) using a 20-minute gradient of 16-26% acetonitrile in 20 mM HCl aqueous solution with a flowrate of 1 ml/min. Purified peptide samples were purged with N2 gas for 20 minutes to remove the acetonitrile. The pH of final solution was adjusted to 7.4 with 0.1 N NaOH and normal saline for animal studies. The stability of ^111In-DOTA-CycMSH and ^111In-DOTA-GlyGlu-CycMSH was determined by incubation in mouse serum at 37° C. according to the published procedure (20) for various time periods, and monitored for degradation by RP-HPLC.

Data set [2] in a line: Biodistribution in normal C57 mice. The class given is in vivo. The conditions noted are these: C57, mouse, lung, iv, 0.037 MBq, total radioactivity. The protocol: Biodistribution Studies: All the animal studies were conducted in compliance with Institutional Animal Care and Use Committee approval. B16/F10 pulmonary metastatic melanoma model was established by injecting 0.2 million of cultured B16/F10 cells into each C57 mouse (Harlan, Indianapolis, Ind.) through the tail vein. The B16/F10 pulmonary metastatic melanoma-bearing C57 mice were used for biodistribution studies 16 days after the cell injection. The pharmacokinetics of ^111In-DOTA-GlyGlu-CycMSH was determined in B16/F10 pulmonary metastatic melanoma-bearing and normal C57 mice. HPLC-purified 0.037 MBq of ^111In-DOTA-GlyGlu-CycMSH was injected into each mouse through the tail vein. Groups of 5 mice were sacrificed at 2, 4 and 24 h post-injection, and tumors and organs of interest were harvested, weighed and counted. Blood values were taken as 6.5% of the whole-body weight. Statistical analysis was performed using the Student's t-test for unpaired data.

The nature of data set [3]: Urinary metabolites by HPLC in B16/F1 melanoma-bearing C57 mice. The class given is in vivo, mouse. Conditions: urine, 2 h post-injection. The protocol: Urinary Metabolites of ^111In-DOTA-CycMSH and ^111In-DOTA-GlyGlu-CycMSH: One hundred microliter of HPLC purified ^111In-DOTA-CycMSH (0.74-1.11 MBq, 0.82-1.12 ng) or ^111In-DOTA-GlyGlu-CycMSH (0.74-1.11 MBq, 0.90-1.35 ng) was injected into each B16/F1 murine melanoma-bearing C57 mouse through the tail vein. At 2 h after dose administration, mice were sacrificed and the urine was collected. The radioactive metabolites in the urine were analyzed by injecting aliquots of urine into HPLC. A 20-minute gradient of 16-26% acetonitrile/20 mM HCl was used for the urine analysis.

The subject of data set [4] is B16/F10 pulmonary melanoma metastases. Type of data set: in vivo, mouse. The conditions noted are these: mouse, in vivo. The protocol:
Metastatic Melanoma Imaging: A pulmonary metastatic melanoma-bearing mouse was used for [^18F]FDG PET imaging 16 days after the cell injection and used for ^111In-DOTA-GlyGlu-CycMSH SPECT/CT imaging on next day (a time interval of 26 h) to compare the difference in detection efficiency between [^18F]FDG and ^111In-DOTA-GlyGlu-CycMSH. The mouse was injected with 35.15 MBq of commercial [^18F]FDG (Biotech, N. Mex.) via the tail vein. At 1 h post-injection, the mouse was anesthetized with 1.5% isoflurane and placed in the prone position near the center of the field of view of small animal PET (LabPET™) (Gamma Medica-Ideas, Sherbrooke, Quebec). A 30-min static scan was acquired, and the image was reconstructed by maximum likelihood estimation method (MLEM). The mouse was returned to the cage for recovery after the ^18F-FDG PET imaging study was completed. The same mouse was injected with 24.05 MBq of ^111In-DOTA-GlyGlu-CycMSH via the tail vein 24 h after the ^18F-FDG PET imaging study. The mouse was anesthetized with 1.5% isoflurane for small animal SPECT/CT (Nano-SPECT/CT®, Bioscan) imaging 2 h post-injection. The 6-min CT imaging was immediately followed by the focused SPECT imaging of lung. The SPECT scans of 24 projections were acquired and total acquisition time was 45 min. After the focused lung imaging, the mouse was sacrificed with CO2 inhalation for whole-body SPECT/CT imaging. The 9-min CT imaging was immediately followed by the SPECT imaging of whole-body. Reconstructed data from SPECT and CT were visualized and co-registered using InVivoScope (Bioscan, Washington D.C.). Necropsy analysis of the mouse was performed to confirm the pulmonary metastatic melanoma lesions after the SPECT/CT imaging studies were completed. To monitor the development of pulmonary melanoma metstases with ^111In-DOTA-GlyGlu-CycMSH, a pulmonary metastatic melanoma-bearing mouse was injected with 10.36 MBq of ^111In-DOTA-GlyGlu-CycMSH through the tail vein for small animal SPECT/CT imaging 20 days after the cell injection. […]

Structures are written as SMILES. Residues, ends and D or L forms follow the SMILES beside them.

With `CCCC[C@@H]1NC(=O)[C@@H](NC(=O)[C@H](CCC(=O)O)NC(=O)CNC(=O)CN2CCN(CC(=O)O)CCN(CC(=O)O)CCN(CC(=O)O)CC2)CCCCNC(=O)[C@H](CC(=O)O)NC(=O)[C@H](C(C)C)NC(=O)[C@@H]2CCCN2C(=O)[C@H](CCCNC(=N)N)NC(=O)CNC(=O)[C@H](Cc2c[nH]c3ccccc23)NC(=O)[C@H](CCCNC(=N)N)NC(=O)[C@@H](Cc2ccccc2)NC(=O)[C@H](Cc2c[nH]cn2)NC(=O)[C@H](CCC(=O)O)NC1=O` [^111In-DOTA-GlyGlu-CycMSH, metal not drawn] (HELM PEPTIDE1{[O=C(O)CN1CCN(CC(=O)O)CCN(CC(=O)[*:2])CCN(CC(=O)O)CC1].G.E.K.[Nle].E.H.[dF].R.W.G.R.P.V.D}$PEPTIDE1,PEPTIDE1,4:R3-15:R2$$$V2.0), the “stability in mouse serum” value in data set [1] is recorded as “stable”. Moreover, in data set [2] (2 h post-injection), the tissue uptake at 2 h came to 0.08 ± 0.08 %ID/g. Besides, the tissue uptake at 4 h in data set [2] (4 h post-injection) is 0.05 ± 0.05 %ID/g. Moreover, the tissue uptake at 24 h in data set [2] (24 h post-injection) was 0.03 ± 0.02 %ID/g. Besides, the “urinary metabolites by RP-HPLC” value in data set [3] is given as “transformed to two more polar metabolites”. Besides, the “accumulation of activity in normal organs in whole-body image” value in data set [4] is reported as “extremely low except for the kidneys”.

Values taken from patent US11160887B2, “Compositions for use in diagnosing and treating melanoma, including metastatic melanoma and methods related to same” (UNM RAINFOREST INNOVATIONS, priority 2008, dated 2021).
